According to article PMC6017447, “Novel 6- and 7-Substituted Coumarins with Inhibitory Action against Lipoxygenase and Tumor-Associated Carbonic Anhydrase IX” (Molecules : A Journal of Synthetic Chemistry and Natural …, 2018):
Like-named read-outs stand apart in the source and are kept apart here.

Legend:
[1] = target: T1, soybean lipoxygenase (LOX) (Glycine max, UniProt P08170); test: in vitro inhibition of soybean lipoxygenase, UV absorbance based enzyme assay; type: biochemical; details: sodium linoleate 0.1 mM, pH 9; for % LOX Inhibition at 100 Μμ / inhibition at 100 µM: 100 μM compound; for inhibition at 100 µM: read-out: % LOX Inhibition at 100 Μμ
T1 construct: purchased Sigma Chemical, Co. (St. Louis, MO, USA)
T1 sequence (P08170 1-839): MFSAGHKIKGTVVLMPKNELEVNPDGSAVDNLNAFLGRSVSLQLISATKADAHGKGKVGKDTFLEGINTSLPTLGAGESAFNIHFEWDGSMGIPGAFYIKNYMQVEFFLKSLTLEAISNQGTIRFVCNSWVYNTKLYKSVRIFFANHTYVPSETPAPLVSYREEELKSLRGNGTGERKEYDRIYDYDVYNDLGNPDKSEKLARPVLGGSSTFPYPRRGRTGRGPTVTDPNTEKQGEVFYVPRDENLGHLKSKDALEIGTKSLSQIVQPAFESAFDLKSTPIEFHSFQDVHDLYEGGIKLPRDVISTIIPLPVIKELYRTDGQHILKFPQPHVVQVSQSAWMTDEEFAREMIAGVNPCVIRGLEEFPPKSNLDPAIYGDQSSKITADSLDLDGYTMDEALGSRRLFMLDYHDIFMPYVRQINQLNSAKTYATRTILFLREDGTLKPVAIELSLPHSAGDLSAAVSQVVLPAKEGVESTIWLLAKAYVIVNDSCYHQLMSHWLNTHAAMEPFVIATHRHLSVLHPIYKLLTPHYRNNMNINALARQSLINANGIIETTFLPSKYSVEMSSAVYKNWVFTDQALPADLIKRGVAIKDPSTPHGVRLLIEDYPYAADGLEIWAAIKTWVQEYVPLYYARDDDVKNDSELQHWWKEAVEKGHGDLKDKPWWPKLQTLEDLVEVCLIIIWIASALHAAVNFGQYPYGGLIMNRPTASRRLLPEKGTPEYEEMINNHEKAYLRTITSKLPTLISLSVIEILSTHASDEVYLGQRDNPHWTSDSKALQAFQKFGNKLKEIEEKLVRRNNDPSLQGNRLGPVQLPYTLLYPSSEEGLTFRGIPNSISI
Method: Most of the LOX inhibitors are antioxidants or free radical scavengers. LOXs contain a non-heme iron per molecule in the enzyme active site as high-spin Fe^2+ in the native state and the high spin Fe^3+ in the activated state.
A DMSO solution of the tested compound was incubated with sodium linoleate (0.1 mM) and 0.2 mL of soybean LOX solution (1/9 × 10^−4 w/v in saline) in buffer pH 9 (tris) and at room temperature.

hCA IV = hCA IV (Homo sapiens, UniProt P22748); test: stopped flow CO2 hydrase assay, hCA IV
Sequence of hCA IV (P22748 19-312): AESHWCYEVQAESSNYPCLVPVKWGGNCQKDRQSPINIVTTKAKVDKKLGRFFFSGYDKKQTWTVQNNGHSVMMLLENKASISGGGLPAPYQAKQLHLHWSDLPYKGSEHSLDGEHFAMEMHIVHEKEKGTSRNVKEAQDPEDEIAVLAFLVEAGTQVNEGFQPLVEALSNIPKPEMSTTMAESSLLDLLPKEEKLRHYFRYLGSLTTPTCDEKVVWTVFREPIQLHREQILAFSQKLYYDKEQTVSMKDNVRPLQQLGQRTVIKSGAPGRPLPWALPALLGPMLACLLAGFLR
Method: (§1) An Applied Photophysics (Oxford, UK) stopped-flow instrument has been used for assaying the CA catalysed CO2 hydration activity [36]. […] The uncatalyzed rates were determined in the same manner and subtracted from the total observed rates. Stock solutions of inhibitor (0.1 mM) were prepared in distilled-deionized water and dilutions up to 0.01 nM were done thereafter with distilled-deionized water. […] The inhibition constants were obtained by non-linear least-squares methods using PRISM 3, as reported earlier [42, 43, 44, 45, 46, 47, 48, 49, 50] and represent the mean from at least three different determinations. The four CA isoforms were recombinant proteins obtained as reported earlier in our laboratory [42, 43, 44, 45, 46, 47, 48, 49, 50].

hCA I = hCA I (Homo sapiens, UniProt P00915); test: stopped flow CO2 hydrase assay, hCA I
Sequence of hCA I (P00915 whole entry): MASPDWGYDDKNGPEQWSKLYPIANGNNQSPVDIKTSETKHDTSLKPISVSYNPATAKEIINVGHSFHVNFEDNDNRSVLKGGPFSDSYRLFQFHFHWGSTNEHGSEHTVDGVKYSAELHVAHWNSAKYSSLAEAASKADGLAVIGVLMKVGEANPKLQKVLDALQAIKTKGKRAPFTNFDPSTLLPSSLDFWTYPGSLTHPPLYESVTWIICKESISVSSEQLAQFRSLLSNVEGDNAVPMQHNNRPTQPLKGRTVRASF
Method: as §1

hCA II = hCA II (Homo sapiens, UniProt P00918); test: stopped flow CO2 hydrase assay, hCA II
Method: as §1

[2] = target: T1, soybean lipoxygenase (LOX); set-up: method as in doi:10.1007/s00044-017-1800-6; details: 100 μM compound; footnote d; cited from earlier work
hCA IX = hCA IX (Homo sapiens, UniProt Q16790); test: stopped flow CO2 hydrase assay, hCA IX
Method: as §1

| Compound | % LOX Inhibition at 100 Μμ [1] | inhibition at 100 µM [1] | melting point | Ki (hCA IV) | Ki (hCA I) | Ki (hCA II) | % LOX Inhibition at 100 Μμ [2] | Ki (hCA IX) | IC50 [1] |
| --- | --- | --- | --- | --- | --- | --- | --- | --- | --- |
| 2-((2-Oxo-2H-chromen-6-yl)oxy)-N-(pyridin-4-ylmethyl)acetamide [Compound 11b] | 37% |  |  |  |  |  |  |  |  |
| 2-((2-Oxo-2H-chromen-7-yl)oxy)-N-(pyridin-4-ylmethyl)acetamide [Compound 11a] | 77% |  |  |  |  |  |  |  |  |
| O=c1ccc2cc(O)ccc2o1 [Compound 1b, 6-hydroxycoumarin] |  | 40% |  |  |  |  |  |  |  |
| CCOC(=O)COc1ccc2ccc(=O)oc2c1 [Compound 2a, Ethyl 2-((2-oxo-2H-chromen-7-yl)oxy)acetate] |  |  | 112.9 to 113 °C | 5.57 µM | > 10 µM | > 10 µM | 16% | 0.247 µM |  |
| CCOC(=O)COc1ccc2oc(=O)ccc2c1 [Compound 2b, Ethyl 2-((2-oxo-2H-chromen-6-yl)oxy)acetate] |  |  | 120 to 122 °C | > 10 µM | > 10 µM | > 10 µM | 41% | 2.04 µM |  |
| O=C(O)COc1ccc2ccc(=O)oc2c1 [Compound 3a, 2-((2-Oxo-2H-chromen-7-yl)oxy)acetic acid] |  |  |  | 8.48 µM | > 10 µM | > 10 µM | 50% | 0.29 µM |  |
| O=C(O)COc1ccc2oc(=O)ccc2c1 [Compound 3b, 2-((2-Oxo-2H-chromen-6-yl)oxy)acetic acid] |  |  |  | > 10 µM | > 10 µM | > 10 µM | 50% | 0.195 µM |  |
| O=C(COc1ccc2ccc(=O)oc2c1)NCCc1ccccc1 [Compound 4a, 2-((2-Oxo-2H-chromen-7-yl)oxy)-N-phenethylacetamide] |  | 96% | 178 to 179 °C | > 10 µM | > 10 µM | > 10 µM |  | 0.166 µM | 10 µM |
| O=C(COc1ccc2oc(=O)ccc2c1)NCCc1ccccc1 [Compound 4b, 2-((2-Oxo-2H-chromen-6-yl)oxy)-N-phenethylacetamide] |  | 85% | 150 to 151 °C | > 10 µM | > 10 µM | > 10 µM |  | 0.0305 µM | 10 µM |
| O=C(COc1ccc2ccc(=O)oc2c1)NCc1ccccc1 [Compound 5a, N-Benzyl-2-((2-oxo-2H-chromen-7-yl)oxy)acetamide] |  | 45% | 167 to 168 °C | > 10 µM | > 10 µM | > 10 µM |  | 0.0837 µM |  |
| O=C(COc1ccc2oc(=O)ccc2c1)NCc1ccccc1 [Compound 5b, N-Benzyl-2-((2-oxo-2H-chromen-6-yl)oxy)acetamide] |  | 42% | 161 to 162 °C | > 10 µM | > 10 µM | > 10 µM |  | 0.0302 µM |  |
| O=C(COc1ccc2ccc(=O)oc2c1)NCc1ccc(F)cc1 [Compound 6a, N-(4-Fluorobenzyl)-2-((2-oxo-2H-chromen-7-yl)oxy)acetamide] |  | 63% | 160 to 161 °C | > 10 µM | > 10 µM | > 10 µM |  | 2.54 µM | 47 µM |
| O=C(COc1ccc2oc(=O)ccc2c1)NCc1ccc(F)cc1 [Compound 6b, N-(4-Fluorobenzyl)-2-((2-oxo-2H-chromen-6-yl)oxy)acetamide] |  | 26% | 158 to 159 °C | > 10 µM | > 10 µM | > 10 µM |  | 2.78 µM |  |
| O=C(COc1ccc2ccc(=O)oc2c1)Nc1ccccc1 [Compound 7a, 2-((2-Oxo-2H-chromen-7-yl)oxy)-N-phenylacetamide] |  | 50% | 182 to 183 °C | > 10 µM | > 10 µM | > 10 µM |  | 0.201 µM | 100 µM |
| O=C(COc1ccc2oc(=O)ccc2c1)Nc1ccccc1 [Compound 7b, 2-((2-Oxo-2H-chromen-6-yl)oxy)-N-phenylacetamide] |  | 45% | 182 to 183 °C | 2.65 µM | > 10 µM | > 10 µM |  | 0.202 µM |  |
| O=C(COc1ccc2ccc(=O)oc2c1)Nc1ccc(F)cc1 [Compound 8a, N-(4-Fluorophenyl)-2-((2-oxo-2H-chromen-7-yl)oxy)acetamide] |  | 43% | 208 to 209 °C | 0.35 µM | > 10 µM | > 10 µM |  | 0.136 µM |  |
| O=C(COc1ccc2oc(=O)ccc2c1)Nc1ccc(F)cc1 [Compound 8b, N-(4-Fluorophenyl)-2-((2-oxo-2H-chromen-6-yl)oxy)acetamide] |  | 11% | 206 to 207 °C | 0.848 µM | > 10 µM | > 10 µM |  | 0.146 µM |  |
| COC(=O)c1ccccc1NC(=O)COc1ccc2ccc(=O)oc2c1 [Compound 9a, Methyl 2-(2-((2-oxo-2H-chromen-7-yl)oxy)acetamido)benzoate] |  | 33% | 213 to 214 °C | > 10 µM | > 10 µM | > 10 µM |  | 2.73 µM |  |
| COC(=O)c1ccccc1NC(=O)COc1ccc2oc(=O)ccc2c1 [Compound 9b, Methyl 2-(2-((2-oxo-2H-chromen-6-yl)oxy)acetamido)benzoate] |  | 50% | 213 to 214 °C | > 10 µM | > 10 µM | > 10 µM |  | 2.04 µM | 100 µM |
| O=C(COc1ccc2ccc(=O)oc2c1)NCCc1ccccn1 [Compound 10a, 2-((2-Oxo-2H-chromen-7-yl)oxy)-N-(2-(pyridin-2-yl)ethyl)acetamide] |  | 79% | 138 to 139 °C | > 10 µM | > 10 µM | > 10 µM |  | 2.38 µM | 15 µM |
| O=C(COc1ccc2oc(=O)ccc2c1)NCCc1ccccn1 [Compound 10b, 2-((2-Oxo-2H-chromen-6-yl)oxy)-N-(2-(pyridin-2-yl)ethyl)acetamide] |  | 40% | 141 to 142 °C | > 10 µM | > 10 µM | > 10 µM |  | 2.15 µM |  |
| O=C(COc1ccc2ccc(=O)oc2c1)NCCN1CCOCC1 [Compound 12a, N-(2-Morpholinoethyl)-2-((2-oxo-2H-chromen-7-yl)oxy)acetamide] |  | 56% | 148 to 149 °C | > 10 µM | > 10 µM | > 10 µM |  | > 10 µM | 42.5 µM |
| O=C(COc1ccc2oc(=O)ccc2c1)NCCN1CCOCC1 [Compound 12b, N-(2-Morpholinoethyl)-2-((2-oxo-2H-chromen-6-yl)oxy)acetamide] |  | 64% | 149 to 150 °C | > 10 µM | > 10 µM | > 10 µM |  | > 10 µM | 16.5 µM |
| O=C(COc1ccc2ccc(=O)oc2c1)NCCN1CCCCC1 [Compound 13a, 2-((2-Oxo-2H-chromen-7-yl)oxy)-N-(2-(piperidin-1-yl)ethyl)acetamide] |  | 50% | 116 to 117 °C | > 10 µM | > 10 µM | > 10 µM |  | 1.97 µM | 100 µM |
| O=C(COc1ccc2oc(=O)ccc2c1)NCCN1CCCCC1 [Compound 13b, 2-((2-Oxo-2H-chromen-6-yl)oxy)-N-(2-(piperidin-1-yl)ethyl)acetamide] |  | 37.6% | 115 to 116 °C | > 10 µM | > 10 µM | > 10 µM |  | 0.274 µM |  |
